In brackets after ≈: the same amount, converted by molar mass.
What was measured:
Assay in all cases: in vitro MIC, two-fold serial dilution in brain-heart infusion medium
Format in all cases: cell-based
[1] = test system: Staphylococcus aureus 01A099
Protocol: (§1) The in vitro activity of the herein-described compounds renders them useful for topical application in the form of ointments, creams and the like, or for sterilization purposes, e.g., sickroom utensils. For topical application, the dosage level is on the order of from about 10 to 200 mg./kg./day.
(§2) The in vitro (MIC) values for 6-(phenylacetamido)-2,2-dimethyl-3-(pyrimidin-4,6-dione-2-yl)penam against several organisms is presented below: […]

[2] = test system: Streptococcus pyogenes 02C203
Protocol: as §1, §2

[3] = test system: Pasteurella multocida 59A001
Protocol: as §1, §2

[4] = test system: Staphylococcus aureus 01AA005
Protocol: as §1, §2

MIC [1]: 50 µg/mL (≈ 125 µM) | MIC [2]: 3.12 µg/mL (≈ 7.79 µM) | MIC [3]: 50 µg/mL (≈ 125 µM) | MIC [4]: 50 µg/mL (≈ 125 µM)
Compound: CC1(C)S[C@@H]2[C@H](NC(=O)Cc3ccccc3)C(=O)N2[C@H]1C1=NC(=O)CC(=O)N1 [6-Phenylacetamido-2,2-dimethyl-3-(pyrimidin-4,6-dione-2yl)penam]

Source: patent publication US4060524A, “6-Acylamido-2,2-dimethyl-3-(pyrimidin-4,6-dione-2-yl)penams” (Pfizer Inc., priority 1976, dated 1977)
